What was measured:
HEK 293 P2X7 cells = assay: ATP/BzATP induced apoptosis, Cell Death Detection ELISA; type: cell-based, human; settings: for induction of cell apoptosis: P2X7 expressing cells
Protocol: Cell Lines—HEK 293 cell line (human), is stabily transfected with the P2X7 receptor [9] to produce HEK 293 P2X7 cells.
(§1) Apoptosis—HEK-293 P2X7 (human) cells are treated with ATP and/or BzATP to induce apoptosis (Wen et al., 2003). The level of apoptosis is determined using a Cell Death Detection ELISA, which is based on DNA laddering. Various doses of P5P are added to the cells to determine its ability to inhibit ATP induced apoptosis. OxATP (Murgia et al., 1993), PPADS (Chessell I P et al., 1998) and/or KN-62 (Humphreys B D et al., 1998) are used as positive controls.

[1] = Rabbit aortic balloon-injury model; type: in vivo; settings: 10 mg/kg daily by gavage
Protocol: Rabbit Aortic Balloon-Injury Model—Forty male New Zealand White rabbits (2.5-3.0 kg) are used. Rabbits are fed regular rabbit chow (control, 20 rabbits) or a 1% cholesterol diet (treated, 20 rabbits) for 8 weeks. Half of each group receives 10 mg/kg P5P (provided by CanAm Bioresearch Inc.) daily by gavage, with the other half receiving saline by gavage. After 4 weeks, a 3F Fogarty embolectomy catheter (Baxter) is inserted into the right femoral artery of each rabbit, advanced 25 cm proximally, and then withdrawn to the origin with the balloon inflated to 0.2 mL saline, a step repeated twice (Lau et al., Probucol promotes functional reendothelialization in balloon-injured rabbit aortas. Circulation 2003; 107(15):2031-6). At 8 weeks, the right and left femoral arteries are harvested from each animal (left femoral arteries serve as uninjured controls). Segments for histology are pressure-perfused with formalin, stored in. 70% (vol/vol) ethanol, and then embedded in paraffin.
Histology—One 5 μm thick cross-section is taken from each of 6 segments of the femoral aorta and stained with hematoxylin and eosin. Morphometric analysis of the 6 arterial cross-sections per animal is performed using Imagespace software (Molecular Dynamics). The intimal and medial areas of each arterial cross-section specimen is measured, and the average intimal/medial area ratio is determined for each group.
Inflammatory Markers, Lipid Profile, and Homocysteine Levels—At the beginning and end of the study, and every 2 weeks throughout, blood samples are collected through a catheter inserted in the ear artery of conscious rabbits. Plasma interleukin-6 (IL-6) levels are measured with quantitative sandwich enzyme immunoassay employing commercial kits for rats (R&D Systems) (Oubina et al., Synergistic effect of angiotensin-converting enzyme (ACE) and 3-hydroxy-3-methylglutaryl-CoA (HMG-CoA) reductase inhibition on inflammatory markers in atherosclerotic rabbits. Clin Sci (Lond). 2003; 105(6):655-62). CRP plasma levels are measured with an immunoassay kit for rabbits (Alpco Diagnostics). Plasma cholesterol levels are measured using colorimetric reactions employing commercial kits (Roche Diagnostics). Homocysteine levels are determined by high performance liquid chromatography, as previously described (Zhloba and Blashko, Liquid chromatographic determination of total homocysteine in blood plasma with photometric detection. J Chromatogr B Analyt Technol Biomed Life Sci. 2004; 800(1-2):275-80).
Evaluation of Endothelial Function by Ultrasound—Ultrasound evaluation of endothelial function of the femoral aorta is performed at the beginning and end of the study, and every 2 weeks throughout (Drolet et al., Early endothelial dysfunction in cholesterol-fed rabbits: a non-invasive in vivo ultrasound study. Cardiovasc Ultrasound. 2004; 2(1):10). Rabbits are sedated using midazolam (0.5 mg/kg), butorphanol (0.5 mg/kg) and ketamine (30 mg/kg) IM. Marginal ear vein and artery are cannulated for drug infusions and arterial blood pressure monitoring, respectively. Heart rate is monitored continuously throughout the procedure. […]
Once the imaging of the aorta is optimal, the animals receive the following drug perfusions I.V. sequentially for 2 minutes each: 1) saline at 1 ml/min; 2) acetylcholine (Ach) at 0.05 μg/ml/min and Ach at 0.5 μg/ml/min. […] Images of the femoral aorta are recorded continuously through the entire procedure on standard S-VHS videotape for off-line analysis. […]

[2] = Double-blind placebo-controlled trial in PCI (angioplasty) patients; type: in vivo, human
Protocol: Study Design and Population—The study is a multicenter, double-blind, placebo-controlled, randomized trial. The protocol is approved by institutional review boards prior to commencement. Patients referred for elective percutaneous coronary interventional (PCI) are evaluated 14 days before their scheduled procedures. Eligible patients are asked to provide written informed consent and undergo medical history, physical examination, electrocardiography, hematology, and clinical biochemistry. Patients are eligible if they are scheduled to undergo PCI with or without stenting on one native coronary artery and have one de novo target lesion with luminal narrowing 50%. Subjects who have severe liver disease or serum creatinine 200 μmol/L; myocardial infarction within the past 7 days; left main stenosis >50%; ejection fraction <30%; have had PCI for another lesion in the preceding 6 months; are being treated for a restenotic lesion; or have scheduled atherectomy, brachytherapy, or PCI of a bypass graft before randomization are excluded. A total of 120 patients are enrolled, with 60 randomized to receive P5P and 60 to receive placebo.
The primary endpoint is clinical restenosis requiring target lesion revascularization at six months. The secondary end points are major adverse cardiac events (MACE) including death, myocardial infarction and revascularization.
Randomization and Drug Regimen—Patients are randomly assigned to receive P5P (provided by CanAm Bioresearch Inc.) 750 mg once day or placebo beginning 14 days before scheduled PCI. P5P or matched placebo is administered as 3 tablets given once daily. All patients will also receive an extra dose of P5P or matched placebos on the evening before PCI, according to random treatment assignment. After PCI, all patients are maintained on their assigned study regimen for 4 additional weeks.
PCI and Follow-Up Evaluation—PCI with or without stent placement and post-PCI management will be performed according to current clinical practice. ECGs are obtained before PCI, immediately thereafter, and the morning after PCI. Creatine kinase, creatine kinase-MB fraction, and troponin I are measured on the evening after PCI and the following morning. Patients are discharged after PCI with 4 weeks of the study medication. Aspirin 325 mg/d is given from the time of recruitment and for the entire study duration. All-patients treated with stents also receive clopidogrel 75 mg/d for 30 days after PCI. Patients will return at 1 Month, 3 months and 6 months for clinical evaluation and drug accountability. Patients are assessed for ischemic symptoms and adverse events, whether or not they were related to the study medication or PCI procedure. Blood chemistry values assessed at baseline are measured again at PCI discharge and at follow-up visits. Patients are readmitted for follow-up catheterization and IVUS 5 to 7 months after PCI. […]
IVUS Examinations and Measurements—IVUS examinations are performed with 30-MHz, 3.2 F ultrasound catheters (Tardif et al., Canadian Antioxidant Restenosis Trial (CART-1) Investigators. Effects of AGI-1067 and probucol after percutaneous coronary interventions. Circulation. 2003; 107(4):552-8). IVUS studies are recorded before, PCI whenever possible and are always performed after PCI (after final balloon inflation) and at follow-up (before any subsequent intervention). […] The preintervention, post-PCI, and follow-up studies are analyzed side by side. […]

[3] = Tolerability and toxicity in animal and human studies; type: in vivo
[4] = test system: isolated perfused rat hearts; settings: previous finding of the inventors (refs 89, 90); cited from earlier work
[5] = test system: hepatic cytochrome enzymes; assay: Inhibition of hepatic cytochrome enzymes; type: in vitro ADME
human platelet = settings: cited from earlier work
LPS primed THP-1 cells = assay: ATP induced IL-1β secretion, ELISA; type: cell-based; settings: for inhibition of IL-1β secretion: LPS primed THP-1 cells treated with ATP
Protocol: LPS primed THP-1 cells are treated with ATP to induced IL-1β secretion (Grahames C B A et-al (1999) Br J Pharm 127:1915-1921). IL-1β secretion levels are determined by ELISA. Various doses of P5P are added to the cells to determine its ability to Inhibit the ATP induced IL-1β secretion. OxATP (Grahames et al., 1999), PPADS (Grahames et al., 1999), and/or KN-62 (Grahames et al., 1999) are used as positive controls.

[6] = test system: freshly isolated adult rat cardiomyocytes; settings: previous finding of the inventors (refs 89, 93); cited from earlier work
[7] = cited from earlier work
wild type HEK 293 cells = assay: ATP/BzATP induced apoptosis in wild type control cells; type: cell-based, human; settings: wild type cells without P2X7
Protocol: as §1
Control—All the experiments are carried out in wild type HEK 293 cells as a control.

[8] = 750 mg once a day from 14 days before to 4 weeks after PCI

Molecule: Cc1ncc(COP(=O)(O)O)c(C=O)c1O [P5P, Pyridoxal-5′-phosphate]
- inhibition of ATP mediated cell apoptosis (HEK 293 P2X7 cells; P2X7 expressing HEK 293 cells, vs untreated cells): inhibits
- CRP levels ([1]; 8 weeks): lowered
- homocysteine levels ([1]; 8 weeks): lowered
- lipid profile ([1]; 8 weeks): improved
- incidence of restenosis ([1]; balloon injury): decreased incidence
- endothelial function ([1]; ultrasound): improved
- CRP levels [2, 8]: lowered
- homocysteine levels [2, 8]: lowered
- incidence of restenosis following PCI [2, 8]: decreased incidence
- lipid profile [2, 8]: improved
- endothelial function ([2]; 750 mg once a day, brachial artery ultrasound): improved
- tolerability [3]: easily tolerated
- toxicity [3]: low toxicity
- inhibition of positive inotropic effects of ATP [4]: inhibits
- inhibition of hepatic cytochrome enzymes [5]: does not inhibit
- inhibition of prostaglandin E1 and theophylline-induced platelet aggregation (human platelet; in vitro (ref 123)): inhibit
- inhibition of platelet aggregation and 14C-5HT release (human platelet; induced by ADP, thrombin, adrenaline, platelet activating factor, arachidonic acid, in vitro (ref 122)): inhibit
- inhibition of thromboxane B2 generation (human platelet; induced by all of these agents except arachidonic acid (ref 122)): inhibited
- inhibition of IL-1β secretion (LPS primed THP-1 cells): inhibits
- inhibition of ATP induced calcium influx [6]: inhibits

Molecule: Cc1ncc(CO)c(CO)c1O [pyridoxine]
- plasma antithrombin III (AT III) activity ([7]; atherosclerotic patients (ref 16)): significantly increased
- AT III activity ([7]; patients with genetic homocysteinuria (ref 125)): increase
- bleeding time ([7]; patients, 100 mg twice daily for 15 days (ref 124)): significantly prolonged
- platelet aggregation induced with ADP or epinephrine ([7]; plasma from patients, 100 mg twice daily for 15 days (ref 124)): significantly inhibited

Molecule: Cc1nc(N=Nc2ccc(S(=O)(=O)O)cc2S(=O)(=O)O)c(COP(=O)(O)O)c(C=O)c1O [PPADS]
- inhibition of IL-1β secretion (LPS primed THP-1 cells): inhibits

Molecule: BzATP
- induction of cell apoptosis (HEK 293 P2X7 cells): induce
- induction of cell apoptosis (wild type HEK 293 cells): do not induce

Molecule: CN([C@@H](Cc1ccc(OS(=O)(=O)c2cccc3cnccc23)cc1)C(=O)N1CCN(c2ccccc2)CC1)S(=O)(=O)c1cccc2cnccc12 [KN-62]
- inhibition of IL-1β secretion (LPS primed THP-1 cells): inhibits

Molecule: Nc1ncnc2c1ncn2[C@@H](C=O)O[C@@H](C=O)COP(=O)(O)OP(=O)(O)OP(=O)(O)O [OxATP]
- inhibition of IL-1β secretion (LPS primed THP-1 cells): inhibits

Molecule: Nc1ncnc2c1ncn2[C@@H]1O[C@H](COP(=O)(O)OP(=O)(O)OP(=O)(O)O)[C@@H](O)[C@H]1O [ATP, adenosine triphosphate]
- induction of cell apoptosis (HEK 293 P2X7 cells): induce
- induction of cell apoptosis (wild type HEK 293 cells): do not induce
- induction of IL-1β secretion (LPS primed THP-1 cells; LPS primed THP-1 cells): induces

Reference: patent publication US20080175880A1, “Pyridoxal-5-Phosphate And Stent For The Treatment And Prevention Of Atherosclerosis And Restenosis” (MEIDCURE INTERNATIONAL INC., priority 2004, published 2008)
